# Results: ChEMBL document CHEMBL4261612, “Designing dichlorobinaphthoquinone as a prooxidative anticancer agent based on hydrogen peroxide-responsive in situ production of hydroxyl radicals” (Eur J Med Chem, 2018)
# Active and inactive are the calls of the source. The calls are words filed in the database; no cut-off is given here.
# Assays:
# A549 [1] = test: Cytotoxicity against human A549 cells assessed as reduction in cell viability after 48 hrs by MTT assay; type: functional, cell-based; conditions: A549, 48 h
# [2] = Induction of hydroxyl radicals generation assessed as DMPO/hydroxyl radical level at 50 uM in presence of H2O2 measured after 5 mins by ESR spectral analysis based EPR secondary radical spin-trapping method; type: functional
# [3] = Induction of hydroxyl radicals generation assessed as methyl radical formation by measuring DMPO/CH3 radical level at 50 uM in presence of H2O2 measured after 5 mins by ESR spectral analysis based EPR secondary radical spin-trapping method; type: functional
# HepG2 = test: Cytotoxicity against human HepG2 cells assessed as reduction in cell viability after 48 hrs by MTT assay; type: functional, cell-based; conditions: HepG2, 48 h
# L02 [4] = test: Cytotoxicity against human LO2 cells assessed as reduction in cell viability after 48 hrs by MTT assay; type: cell-based; conditions: for IC50: Homo sapiens, L02, 48 h
# A549 [5] = test: Induction of hydrogen peroxide-responsive hydroxyl radicals generation in human A549 cells at 7.5 uM pretreated for 3 hrs followed by 20 uM coumarin-cyanine probe 1 addition and measured after 0.5 hrs by fluorescence imaging assay; type: functional, cell-based
# A549 [6] = test: Induction of hydrogen peroxide-responsive hydroxyl radicals generation in human A549 cells at 7.5 uM pretreated for 3 hrs followed by 2 uM rhodamine nitroxide probe 3 addition and measured after 12 hrs by fluorescence imaging assay; type: functional, cell-based
# A549 [7] = test: Cytotoxicity against human A549 cells assessed as reduction in cell viability co-treated with alpha-tocopherol after 48 hrs by MTT assay; type: functional, cell-based
# A549 [8] = test: Induction of hydrogen peroxide-responsive hydroxyl radicals generation in human A549 cells at 7.5 uM pretreated for 3 hrs followed by 20 uM coumarin-cyanine probe 1 addition and measured after 0.5 hrs in presence of catalase by fluorescence imaging assay; type: functional, cell-based
# A549 [9] = test: Induction of hydrogen peroxide-responsive hydroxyl radicals generation in human A549 cells at 2.5 to 7.5 uM pretreated for 3 hrs followed by 2 uM rhodamine nitroxide probe 3 addition and measured after 12 hrs by fluorescence imaging assay; type: functional, cell-based
# A549 [10] = test: Cytotoxicity against human A549 cells assessed as induction of hydrogen peroxide-responsive hydroxyl radicals-mediated cell killing by measuring cell viability at 62.5 uM preincubated for 3 hrs followed by 50 uM H2O2 treatment for 45 mins and measured after 48 hrs by MTT assay (reference value: 75.8%); type: functional
# A549 [11] = test: Induction of hydrogen peroxide-responsive hydroxyl radicals generation in human A549 cells at 2.5 to 7.5 uM pretreated for 3 hrs followed by 20 uM coumarin-cyanine probe 1 addition and measured after 0.5 hrs by fluorescence imaging assay; type: functional, cell-based
# L02 [12] = test: Induction of hydrogen peroxide-responsive hydroxyl radicals generation in human LO2 cells at 7.5 uM pretreated for 3 hrs followed by 20 uM coumarin-cyanine probe 1 addition and measured after 0.5 hrs in presence of catalase by fluorescence imaging assay; type: cell-based; conditions: l02, 0.5 h
# L02 [13] = test: Cytotoxicity against human LO2 cells assessed as induction of hydrogen peroxide-responsive hydroxyl radicals-mediated cell killing by measuring cell viability at 62.5 uM preincubated for 3 hrs followed by 100 uM H2O2 treatment for 45 mins and measured after 48 hrs by MTT assay; type: cell-based; conditions: l02, 62.5 µM
Structure (SMILES),IC50 (A549 [1]) [µM],Activity [2],Activity [3],IC50 (HepG2) [µM],IC50 (L02 [4]) [µM],Activity (A549 [5]),Activity (A549 [6]),Activity (A549 [7]),Activity (A549 [8]),Activity (A549 [9]),Activity (A549 [10]) [%],Activity (A549 [11]),Activity (L02 [12]),"Activity (L02 [4]; human, l02, 48 h)",Activity (L02 [13])
O=C1C=C(C2=CC(=O)c3ccccc3C2=O)C(=O)c2ccccc21,> 10,inactive,inactive,> 10,> 10,inactive,inactive,–,–,–,–,–,–,–,–
O=C1C(O)=C(C2=C(Cl)C(=O)c3ccccc3C2=O)C(=O)c2ccccc21,4.25,Active,Active,4.59,> 10,Active,Active,–,–,–,–,–,–,–,–
O=C1C(Cl)=C(C2=C(Cl)C(=O)c3ccccc3C2=O)C(=O)c2ccccc21,2.14,Active,Active,2.29,> 10,–,–,Active,inactive,Active,52.6,Active,Non-Toxic,Non-Toxic,Non-Toxic
